Tests used:
[1] = system: penicillin hypersensitivity (patients); assay: Skin tests for penicillin hypersensitivity: monostereoisomeric penicilloyl-poly-L-lysine vs mixture of stereoisomers (Table II); type: in vivo, human
Procedure: (§1) One of the uses for the conjugates of this invention is in skin testing for penicillin hypersensitivity. The conjugated compositions are prepared for skin testing by first dissolving the composition in buffered isotonic solutions, having a pH in the range from 7 to 8. For example, the conjugates prepared above may be diluted with aqueous solutions 0.15 M NaCl in 0.01 M phosphate, pH 7.6. In addition, other physiological salt solutions may be used.
(§2) Intradermal injections may be made of the foregoing solutions with a 26 guage needle, the volume injected may be generally about 0.01 to 0.03 cc. Alternatively, the conjugate may be applied by the scratch test technique. The development of a wheal at the injection site after about 20 minutes indicates a positive reaction, and penicillin hypersensitivity.
(§3) Penicillin hypersensitivity tests carried out with the conjugate compositions of this invention reflect the numerous advantages of penicillin hypersensitivity determinations made with such compositions. […] In Table II the distribution of skin reactions is shown by history of penicillin therapy and hypersensitivity. […] (See column 2, for example, showing the percentages of patients tested who had […] skin test.)

[2] = system: penicillin hypersensitivity (patients); assay: Comparison of skin tests with penicilloyl-poly-L-lysine and penicillin G (Table III); type: in vivo, human; conditions: 1163 tested
Procedure: as §1, §2, §3

[3] = GROUP I: claimed prior history of non-sensitivity and previous penicillin treatments
[4] = GROUP II: claimed prior history of sensitivity and previous penicillin treatments
[5] = GROUP III: no prior history of sensitivity and no previous penicillin treatments

Substance: penicilloyl-poly-L-lysine [PPL]
- NEGATIVE SKIN TESTS % [1, 3]: 91.5%
- NEGATIVE SKIN TESTS No. [1, 3]: 4223
- NEITHER NEGATIVE NOR POSITIVE SKIN TESTS % [1, 3]: 0.7%
- NEITHER NEGATIVE NOR POSITIVE SKIN TESTS No. [1, 3]: 36
- POSITIVE SKIN TESTS % [1, 3]: 7.8%
- POSITIVE SKIN TESTS No. [1, 3]: 358
- NEGATIVE SKIN TESTS % [1, 4]: 77.7%
- NEGATIVE SKIN TESTS No. [1, 4]: 143
- NEITHER NEGATIVE NOR POSITIVE SKIN TESTS % [1, 4]: nil
- NEITHER NEGATIVE NOR POSITIVE SKIN TESTS No. [1, 4]: nil
- POSITIVE SKIN TESTS % [1, 4]: 22.3%
- POSITIVE SKIN TESTS No. [1, 4]: 41
- NEGATIVE SKIN TESTS % [1, 5]: 96.5%
- NEGATIVE SKIN TESTS No. [1, 5]: 637
- NEITHER NEGATIVE NOR POSITIVE SKIN TESTS % [1, 5]: 0.2%
- NEITHER NEGATIVE NOR POSITIVE SKIN TESTS No. [1, 5]: 1
- POSITIVE SKIN TESTS % [1, 5]: 3.3%
- POSITIVE SKIN TESTS No. [1, 5]: 22
- NEGATIVE SKIN TESTS % ([1]; TOTALS, all groups): 91.6%
- NEGATIVE SKIN TESTS No. ([1]; TOTALS, all groups): 5003
- NEITHER NEGATIVE NOR POSITIVE SKIN TESTS % ([1]; TOTALS, all groups): 0.7%
- NEITHER NEGATIVE NOR POSITIVE SKIN TESTS No. ([1]; TOTALS, all groups): 37
- POSITIVE SKIN TESTS % ([1]; TOTALS, all groups): 7.7%
- POSITIVE SKIN TESTS No. ([1]; TOTALS, all groups): 421
- POSITIVE SKIN TESTS % [2]: 17.9%
- Positive Skin Tests, Number of Patients [2]: 209

Source: patent US3979508A, “Compositions and methods therewith for penicillin hypersensitivity detection” (Kremers-Urban Company, priority 1975, dated 1976)
